From publication PMC9239997, “Structural basis for mitoguardin-2 mediated lipid transport at ER-mitochondrial membrane contact sites” (Nature Communications, 2022)
Residue numbers refer to the chain shown, from its start. [ ]: non-standard residue; d: D form. pS = N[C@@H](COP(=O)(O)O)C(=O)O

Columns and labels:
[1] = target: T1, zMiga2-GST (Danio rerio, UniProt Q5BLE2); test: preloading, glutathione bead wash, Clear Native-PAGE fluorescence; assay type: binding; details: labelled compound; probe of the displacement assay
T1 construct: gene miga2; LD targeting domain, residues 310-568, C-terminal GST fusion kept; E. coli
T1 sequence (Q5BLE2 310-568): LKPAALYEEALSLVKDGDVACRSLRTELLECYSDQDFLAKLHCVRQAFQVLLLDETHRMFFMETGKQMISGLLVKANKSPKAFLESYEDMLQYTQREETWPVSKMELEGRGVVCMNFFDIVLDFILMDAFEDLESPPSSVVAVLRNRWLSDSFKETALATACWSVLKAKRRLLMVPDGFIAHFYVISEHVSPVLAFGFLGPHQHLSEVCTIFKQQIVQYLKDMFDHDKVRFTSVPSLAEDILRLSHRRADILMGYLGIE

[2] = target: T2, zMiga2 (Danio rerio, UniProt Q5BLE2, F488W); test: Clear Native-PAGE, NBD fluorescence; assay type: binding; details: labelled compound; pH 7.5, on ice, 2 h
T2 construct: gene miga2; LD targeting domain, residues 310-568; E. coli BL21(DE3); His6 tag cleaved by TEV
T2 sequence (Q5BLE2 310-568 F488W): T1 sequence (Q5BLE2 310-568) with F179W

[3] = target: T3, zMiga2 (Danio rerio, UniProt Q5BLE2, V430W/F488W); test: Clear Native-PAGE, NBD fluorescence; assay type: binding; details: labelled compound; pH 7.5, on ice, 2 h
T3 construct: gene miga2; LD targeting domain, residues 310-568; E. coli BL21(DE3); His6 tag cleaved by TEV
T3 sequence (Q5BLE2 310-568 V430W/F488W): T1 sequence (Q5BLE2 310-568) with V121W, F179W

[4] = target: T4, zMiga2 (Danio rerio, UniProt Q5BLE2); test: Clear Native-PAGE, NBD fluorescence; assay type: binding; details: labelled compound; pH 7.5, on ice, 2 h; hydrophobic cavity
T4 construct: gene miga2; LD targeting domain, residues 310-568; E. coli BL21(DE3); His6 tag cleaved by TEV
T4 sequence (Q5BLE2 310-568): T1 sequence (Q5BLE2 310-568)

[5] = target: T5, zMiga2 (Danio rerio, UniProt Q5BLE2, W409A); test: Clear Native-PAGE, NBD fluorescence; assay type: binding; details: labelled compound; pH 7.5, on ice, 2 h
T5 construct: gene miga2; LD targeting domain, residues 310-568; E. coli BL21(DE3); His6 tag cleaved by TEV
T5 sequence (Q5BLE2 310-568 W409A): T1 sequence (Q5BLE2 310-568) with W100A

[6] = target: T6, zMiga2 (Danio rerio, UniProt Q5BLE2, V430W); test: Clear Native-PAGE, NBD fluorescence; assay type: binding; details: labelled compound; pH 7.5, on ice, 2 h
T6 construct: gene miga2; LD targeting domain, residues 310-568; E. coli BL21(DE3); His6 tag cleaved by TEV
T6 sequence (Q5BLE2 310-568 V430W): T1 sequence (Q5BLE2 310-568) with V121W

[7] = target: T7, mMIGA1^313–573 (Mus musculus, UniProt Q4QQM5); test: Clear Native-PAGE, NBD fluorescence; assay type: binding; details: labelled compound; pH 7.5, on ice, 2 h
T7 construct: gene Miga1; LD targeting domain, residues 313-573; E. coli; His6 tag cleaved by TEV
T7 sequence (Q4QQM5 313-573): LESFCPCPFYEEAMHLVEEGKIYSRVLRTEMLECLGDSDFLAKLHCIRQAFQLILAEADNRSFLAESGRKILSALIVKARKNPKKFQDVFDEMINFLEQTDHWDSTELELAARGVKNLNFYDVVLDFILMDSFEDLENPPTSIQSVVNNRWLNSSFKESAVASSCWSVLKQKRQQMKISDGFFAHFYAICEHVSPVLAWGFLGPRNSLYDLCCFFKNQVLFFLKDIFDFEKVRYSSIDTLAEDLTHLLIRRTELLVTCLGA

[8] = target: T8, MSP domain of mouse VAPB (residues 1-125) (mouse (Mus musculus), UniProt Q9QY76 1-125); test: ITC; Microcal ITC200, 25 °C, buffer C (25 mM Tris-HCl pH 7.5, 150 mM NaCl, 4 mM β-mercaptoethanol); 20 injections of 2 μl; 1:1 binding model; details: both partners purified
T8 construct: vesicle-associated membrane protein-associated protein B/C (VAPB), mouse, MSP domain, residues 1-125; In the liposome clustering (DLS) and tethered lipid transfer assays a His-tagged form (His-mVAPB) was used; also called mVAPB; wild-type mVAPB
T8 sequence (Q9QY76 1-125): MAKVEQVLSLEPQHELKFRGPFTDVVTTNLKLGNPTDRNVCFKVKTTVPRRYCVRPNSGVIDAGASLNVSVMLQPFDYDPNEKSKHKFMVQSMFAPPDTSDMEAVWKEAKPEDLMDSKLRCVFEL

[9] = target: T9, MSP domain of mouse VAPB (residues 1-125), K43L/K45L (mouse (Mus musculus), UniProt Q9QY76 1-125, K43L | K45L); test: as above; details: both partners purified
T9 construct: vesicle-associated membrane protein-associated protein B/C (VAPB), mouse, MSP domain, residues 1-125, K43L/K45L; also called mVAPB K43L/K45L
T9 sequence (Q9QY76 1-125 K43L/K45L): as the sequence (Q9QY76 1-125) above, with K43L, K45L counted along it

[10] = target: T10, MSP domain of mouse VAPB (residues 1-125), K87L/K118L (mouse (Mus musculus), UniProt Q9QY76 1-125, K87L | K118L); test: as above; details: both partners purified
T10 construct: vesicle-associated membrane protein-associated protein B/C (VAPB), mouse, MSP domain, residues 1-125, K87L/K118L; also called mVAPB K87L/K118L
T10 sequence (Q9QY76 1-125 K87L/K118L): as the sequence (Q9QY76 1-125) above, with K87L, K118L counted along it

CCCCCCCCCCCCCCCC(=O)OC[C@H](COP(=O)([O-])OCC[N+](C)(C)C)OC(=O)CCCCCCCCCCCNc1ccc([N+](=O)[O-])c2nonc12 [NBD-PC, 1-palmitoyl-2-{12-[(7-nitro-2-1,3-benzoxadiazol-4-yl)amino]dodecanoyl}-sn-glycero-3-phosphocholine]
preloading, glutathione bead wash, Clear Native-PAGE fluorescence [1]: The NBD-PC bound zMiga2 was incubated with natural lipids across a range of concentrations

CCCCCCCC/C=C\CCCCCCCC(=O)OC[C@H](COP(=O)(O)OCCNc1ccc([N+](=O)[O-])c2nonc12)OC(=O)CCCCCCC/C=C\CCCCCCCC [NBD-PE, 1,2-dioleoyl-sn-glycero-3-phosphoethanolamine-N-(7-nitro-2-1,3-benzoxadiazol-4-yl)]
lipid binding relative to WT [2]: the V430W or F488W single mutant showed a slight decrease in NBD-PE binding
lipid binding relative to WT [3]: double mutant showed decreased lipid-binding that was less than half of that of the wild type
Clear Native-PAGE, NBD fluorescence [4]: explored the ability of the mutant proteins to interact with NBD-PE
NBD-PE binding relative to WT [5]: ~ 2 fold
lipid binding relative to WT [6]: the V430W or F488W single mutant showed a slight decrease in NBD-PE binding
Clear Native-PAGE, NBD fluorescence [7]: NBD-PE binding by MIGA1 was markedly lower than that by MIGA2

B1: phosphorylated FFAT motif peptide of mouse MIGA2 (residues 289-298) (peptide)
peptide: Ac-SED[pS]FF[pS]ATE-NH2
SMILES: CC(=O)N[C@@H](CO)C(=O)N[C@@H](CCC(=O)O)C(=O)N[C@@H](CC(=O)O)C(=O)N[C@@H](COP(=O)(O)O)C(=O)N[C@@H](Cc1ccccc1)C(=O)N[C@@H](Cc1ccccc1)C(=O)N[C@@H](COP(=O)(O)O)C(=O)N[C@@H](C)C(=O)N[C@H](C(=O)N[C@@H](CCC(=O)O)C(N)=O)[C@@H](C)O
notes: also called mMIGA2^pFFAT; phosphorylated FFAT peptide; source: synthetic peptide, purified by HPLC
Kd [8]: 1700 ± 200 nM
fold lower binding affinity than wild type mVAPB [9]: 5 fold
fold lower binding affinity than wild type mVAPB [10]: 3 fold
